Results reported in PubChem BioAssay AID328 (DTP/NCI, 2004).
Several values for one entry are separate records, joined by “and”; a condition that tells them apart may be missing. Identical values can stand only once. Toxic doses and inconclusive results are not listed. Residues, ends and D or L forms follow the SMILES beside them.

Tested on: BDF1 mice, P388 leukemia ip, median survival T/C
Test: NCI In Vivo Anticancer Drug Screen. Data for tumor model P388 Leukemia (intraperitoneal) in B6D2F1 (BDF1) mice
Conditions: endpoint: median survival time, higher = longer survival
Summary of the method: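 Mice carrying the transplantable tumour receive compound or vehicle. Survival is followed in each arm, and the treated measure is divided by the vehicle measure.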

[1] = dose: 12.5 mg/kg/injection, schedule: Q01DX009 (ip), vehicle: saline with Tween-80
[2] = dose: 100.0 mg/kg/injection, schedule: Q04DX003 (ip), vehicle: saline with Tween-80
[3] = dose: 200.0 mg/kg/injection, schedule: Q04DX003 (ip), vehicle: saline with Tween-80
[4] = dose: 400.0 mg/kg/injection, schedule: Q04DX003 (ip), vehicle: saline with Tween-80
[5] = dose: 25.0 mg/kg/injection, schedule: Q01DX009 (ip), vehicle: saline
[6] = dose: 100.0 mg/kg/injection, schedule: Q04DX003 (ip), vehicle: saline
[7] = dose: 200.0 mg/kg/injection, schedule: Q04DX003 (ip), vehicle: saline
[8] = dose: 50.0 mg/kg/injection, schedule: Q01DX009 (ip), vehicle: Klucel (hydroxypropylcellulose) (HPC)
[9] = dose: 100.0 mg/kg/injection, schedule: Q01DX009 (ip), vehicle: Klucel (hydroxypropylcellulose) (HPC)
[10] = dose: 100.0 mg/kg/injection, schedule: Q04DX003 (ip), vehicle: Klucel (hydroxypropylcellulose) (HPC)
[11] = dose: 200.0 mg/kg/injection, schedule: Q04DX003 (ip), vehicle: Klucel (hydroxypropylcellulose) (HPC)
[12] = dose: 400.0 mg/kg/injection, schedule: Q04DX003 (ip), vehicle: Klucel (hydroxypropylcellulose) (HPC)
[13] = dose: 50.0 mg/kg/injection, schedule: Q04DX003 (ip), vehicle: saline with Tween-80
[14] = dose: 50.0 mg/kg/injection, schedule: Q04DX003 (ip), vehicle: Klucel (hydroxypropylcellulose) (HPC)
[15] = dose: 12.5 mg/kg/injection, schedule: Q01DX009 (ip), vehicle: saline
[16] = dose: 100.0 mg/kg/injection, schedule: Q01DX009 (ip), vehicle: saline with Tween-80

C=C(C)C12CC(C)C34OC5(CCCCCCCC(C)C6C(C)C(OC(=O)c7ccccc7)C(O)(C(O)C7(COC(=O)CCCCCCCCCCCCCCC)OC7C3C1O5)C64)O2 (stereo unspecified)
T/C (dose: 0.6 micrograms/kg/injection, schedule: Q01DX009 (ip), vehicle: saline + alcohol): 104 % of control
T/C (dose: 1.3 micrograms/kg/injection, schedule: Q01DX009 (ip), vehicle: saline + alcohol): 112 % of control
T/C (dose: 1.5 micrograms/kg/injection, schedule: Q01DX009 (ip), vehicle: saline + alcohol): 103 % of control
T/C (dose: 2.5 micrograms/kg/injection, schedule: Q01DX009 (ip), vehicle: saline + alcohol): 109 % of control
T/C (dose: 3.1 micrograms/kg/injection, schedule: Q01DX009 (ip), vehicle: saline + alcohol): 106 % of control
T/C (dose: 5.0 micrograms/kg/injection, schedule: Q01DX009 (ip), vehicle: saline + alcohol): 112 % of control
T/C (dose: 10.0 micrograms/kg/injection, schedule: Q01DX009 (ip), vehicle: saline + alcohol): 96 % of control
T/C (dose: 12.5 micrograms/kg/injection, schedule: Q01DX009 (ip), vehicle: saline + alcohol): 154 % of control
T/C (dose: 20.0 micrograms/kg/injection, schedule: Q01DX009 (ip), vehicle: saline + alcohol): 116 % of control
T/C (dose: 25.0 micrograms/kg/injection, schedule: Q01DX009 (ip), vehicle: saline + alcohol): 168 % of control
T/C (dose: 50.0 micrograms/kg/injection, schedule: Q01DX009 (ip), vehicle: saline + alcohol): 183 % of control
T/C (dose: 80.0 micrograms/kg/injection, schedule: Q01DX009 (ip), vehicle: saline + alcohol): 116 % of control

COc1ccc2c(c1)CCC1=C2C=C[P+]1(C)C
T/C [1]: 92 % of control
T/C (dose: 25.0 mg/kg/injection, schedule: Q01DX009 (ip), vehicle: saline with Tween-80): 111 % of control

COC(=O)CNC(=O)C(Cc1ccc(OCc2ccccc2)cc1)NC(=O)OC(C)(C)C (stereo unspecified)
T/C [2]: 105 % of control
T/C [3]: 120 % of control
T/C [4]: 120 % of control

O=C(CCl)NCc1cnccn1
T/C [5]: 107 % of control
T/C (dose: 50.0 mg/kg/injection, schedule: Q01DX009 (ip), vehicle: saline): 102 % of control
T/C (dose: 100.0 mg/kg/injection, schedule: Q01DX009 (ip), vehicle: saline): 108 % of control
T/C [6]: 94 % of control
T/C (dose: 200.0 mg/kg/injection, schedule: Q01DX009 (ip), vehicle: saline): 102 % of control
T/C [7]: 117 % of control

CCSC(C#N)=C(c1ccccc1)c1ccccc1
T/C [2]: 103 % of control
T/C [3]: 94 % of control
T/C [4]: 92 % of control

NOCc1ccc(CON)cc1
T/C (dose: 50.0 mg/kg/injection, schedule: Q04DX003 (ip), vehicle: saline): 87 % of control
T/C [6]: 91 % of control
T/C [7]: 95 % of control

COC1C(=[N+]=[N-])C(=O)NC(=O)N1C (stereo unspecified)
T/C (dose: 12.5 mg/kg/injection, schedule: Q04DX003 (ip), vehicle: water): 120 % of control

CC1(C)CCSC(/C=C/c2ccccc2)=N1
T/C [8]: 103 % of control
T/C [9]: 121 % of control

C=CCSc1nc2ccccc2c(=O)n1-c1cc(OC)c(Cl)cc1OC
T/C [8]: 88 % of control
T/C [9]: 96 % of control

O=c1oc2cccc(O)c2c2c1CCCC2
T/C [10]: 100 % of control
T/C [11]: 104 % of control
T/C [12]: 100 % of control

COc1cccc(C=O)c1OC
T/C [13]: 112 % of control
T/C [2]: 107 % of control
T/C [3]: 112 % of control
T/C [4]: 107 % of control

CCOC1(CC)CN(Cc2ccccc2)CCO1 (stereo unspecified)
T/C (dose: 100.0 mg/kg/injection, schedule: Q01DX001 (ip), vehicle: Klucel (hydroxypropylcellulose) (HPC)): 121 % of control
T/C (dose: 200.0 mg/kg/injection, schedule: Q01DX001 (ip), vehicle: Klucel (hydroxypropylcellulose) (HPC)): 121 % of control
T/C (dose: 400.0 mg/kg/injection, schedule: Q01DX001 (ip), vehicle: Klucel (hydroxypropylcellulose) (HPC)): 115 % of control

CC(C)Cc1c(N)nc(=S)[nH]c1C(=O)O
T/C [14]: 89 % of control
T/C [10]: 107 % of control
T/C [11]: 96 % of control

CC(=O)[O][Hg][CH]1CCC2OC1CC[CH]2[Hg][O]C(C)=O (stereo unspecified)
T/C (dose: 1.56 mg/kg/injection, schedule: Q01DX009 (ip), vehicle: saline with Tween-80): 101 % of control
T/C (dose: 3.13 mg/kg/injection, schedule: Q01DX009 (ip), vehicle: saline with Tween-80): 113 % of control
T/C (dose: 6.25 mg/kg/injection, schedule: Q01DX009 (ip), vehicle: saline with Tween-80): 111 % of control
T/C [1]: 104 % of control

CC([OH2+])CNCCN.CC([OH2+])CNCCN.O=[N+]([O-])[O-].[Cu+2] (stereo unspecified)
T/C [15]: 110 % of control
T/C [5]: 113 % of control

CC(C)C(N)C(=O)NC(CO)C(=O)O (stereo not drawn) (H-Val-Ser-OH; configuration not given here)
T/C (dose: 50.0 mg/kg/injection, schedule: Q01DX005 (ip), vehicle: saline): 99 % of control
T/C (dose: 100.0 mg/kg/injection, schedule: Q01DX005 (ip), vehicle: saline): 106 % of control
T/C (dose: 200.0 mg/kg/injection, schedule: Q01DX005 (ip), vehicle: saline): 92 % of control

Cc1ccc(-c2cc(-c3ccccc3)n(-c3ccccc3)n2)cc1
T/C (dose: 264.0 mg/kg/injection, schedule: Q04DX003 (ip), vehicle: Klucel (hydroxypropylcellulose) (HPC)): 108 % of control and 109 % of control
T/C [12]: 104 % of control and 116 % of control

OCCC[P+](c1ccccc1)(c1ccccc1)c1ccccc1
T/C [14]: 113 % of control
T/C [10]: 109 % of control

COC1OC(COC(=O)c2ccccc2)C(OC(=O)c2ccccc2)C(OC(=O)c2ccccc2)C1OC(=O)c1ccccc1 (stereo unspecified)
T/C [2]: 91 % of control
T/C [3]: 91 % of control
T/C [4]: 91 % of control

O=C1C(F)=C(N2CC2)C(=O)C(N2CCOCC2)=C1N1CC1
T/C (dose: 3.0 mg/kg/injection, schedule: Q01DX009 (ip), vehicle: saline): 157 % of control
T/C (dose: 6.0 mg/kg/injection, schedule: Q01DX009 (ip), vehicle: saline): 99 % of control

C(#CSCc1ccccc1)SCc1ccccc1
T/C [9]: 105 % of control
T/C [10]: 87 % of control
T/C (dose: 200.0 mg/kg/injection, schedule: Q01DX009 (ip), vehicle: Klucel (hydroxypropylcellulose) (HPC)): 100 % of control
T/C [11]: 100 % of control
T/C (dose: 400.0 mg/kg/injection, schedule: Q01DX009 (ip), vehicle: Klucel (hydroxypropylcellulose) (HPC)): 100 % of control
T/C [12]: 91 % of control

CSc1nnnn1-c1ccccc1
T/C (dose: 16.5 mg/kg/injection, schedule: Q01DX009 (ip), vehicle: Klucel (hydroxypropylcellulose) (HPC)): 104 % of control
T/C (dose: 25.0 mg/kg/injection, schedule: Q01DX009 (ip), vehicle: Klucel (hydroxypropylcellulose) (HPC)): 95 % of control
T/C (dose: 37.5 mg/kg/injection, schedule: Q01DX009 (ip), vehicle: Klucel (hydroxypropylcellulose) (HPC)): 104 % of control
T/C [8]: 100 % of control
T/C [9]: 100 % of control

CCOC(=O)Cc1csc2nc(-c3ccccc3)nn12
T/C (dose: 50.0 mg/kg/injection, schedule: Q01DX009 (ip), vehicle: saline with Tween-80): 106 % of control
T/C [16]: 108 % of control
T/C (dose: 200.0 mg/kg/injection, schedule: Q01DX009 (ip), vehicle: saline with Tween-80): 115 % of control

CCCNC(C)(C)C(SS)c1ccc(Cl)cc1 (stereo unspecified)
T/C [13]: 109 % of control
T/C [2]: 104 % of control
T/C [3]: 109 % of control

O=C(NC(=O)c1c(F)cccc1F)Nc1ccc(Cl)nc1
T/C [16]: 91 % of control

c1ccc(COc2ccccn2)cc1
T/C (dose: 25.0 mg/kg/injection, schedule: Q04DX003 (ip), vehicle: Klucel (hydroxypropylcellulose) (HPC)): 90 % of control
T/C [14]: 95 % of control
T/C [10]: 90 % of control

COc1cc(OC)c(OC)cc1/C=C/c1cc[n+](C)c2ccccc12
T/C (dose: 6.25 mg/kg/injection, schedule: Q01DX009 (ip), vehicle: saline): 111 % of control
T/C [15]: 119 % of control
T/C (dose: 16.0 mg/kg/injection, schedule: Q01DX009 (ip), vehicle: saline): 111 % of control
T/C (dose: 35.0 mg/kg/injection, schedule: Q01DX009 (ip), vehicle: saline): 119 % of control

COC1C(OC(=O)/C=C/C=C/C=C/C=C/C(=O)O)CCC2(CO2)C1C1(C)OC1CC=C(C)C (stereo unspecified)
T/C (dose: 88.0 mg/kg/injection, schedule: Q04DX003 (ip), vehicle: saline with Tween-80): 281 % of control
T/C [6]: 100 % of control
T/C (dose: 132.0 mg/kg/injection, schedule: Q04DX003 (ip), vehicle: saline with Tween-80): 281 % of control
T/C [7]: 117 % of control

O=C(O)CCSSCCC(=O)O
T/C [10]: 95 % of control
T/C [11]: 100 % of control
